Legend:
[1] = test system: vascular smooth muscle cells (VSMCs); assay: Vascular calcification induced by Pi 5 mM in VSMCs, extracellular calcium deposition on day 7; format: cell-based; settings: rat VSMCs; for effect of the individual compounds on the calcification (dose-response curves): Pi 5 mM; for calcification inhibition: compared with 5 mM Pi in the same solvent
Method: The experimental model consists of vascular smooth muscle cells (VSMCs) removed from the aorta of a rat (primary cells) and stimulated for 7 days with Na3PO4 (Pi) 5 mM to induce them to […]. […] On day 7, the effect of the treatment on the extracellular calcium deposition was analyzed both by a qualitative histological method (staining of calcium deposits by Alizarin Red Staining), and by a quantitative method, by measuring the amount of […] calcium by a spectrophotometric technique (FIG. 1). Each type of experiment was repeated at least 3 times and each condition was tested at least three times within every single experiment.

[2] = test system: human aortic cell cultures; assay: Calcification induced by inorganic phosphate (Pi, 2 mM) in human aortic cell cultures, Alizarin Red Staining quantification; format: cell-based; settings: products at 0.03%; for % VAR vs CTR+: average % variation of ARS vs positive control (Pi 2 mM only); for % VAR vs CTR−: average % variation of ARS vs untreated negative control; for % VAR vs CTR− / ARS mM average: Pi 2 mM; for ARS mM average: human aortic cells, 7 days, ARS quantity proportional to calcium content
Method: (II) Similarly to what has been stated for the in vitro (I) study, the efficacy was tested of the composition according to the present invention comprising sucrosomial iron pyrophosphate (SRM) (Sucrosomiale®; Sucrosomial®), vitamin K2 menaquinone-7 (MK-7) and magnesium carbonate (MC) (composition called TRIO in Table 1 and FIG. 10) on the slowing of the progression of the vascular calcification induced by high levels of sodium phosphate (Pi) in a vascular cell culture and compared with the efficacy of the single components of the TRIO composition.
In particular, to execute the efficacy test, human aortic cell cultures were treated for 7 days with inorganic phosphate (Pi, 2 mM), a known calcifying agent, to induce mineralization of the cells, and with the products subjected to a concentration test 0.03% (% g of compound under examination/solution volume) and subsequently treated with the compound compositions under examination. At the end of the experimental treatment, the calcium content was quantified by a colorimetric assay, i.e. staining of the calcium deposits by Alizarin Red Staining (ARS).
The experimental design specified: untreated cell cultures (negative control CTR−), cell cultures (positive control CTR+) treated only with the calcifying agent (Pi) and cell cultures in which a calcification event was induced experimentally by the calcifying agent (Pi) and subsequently treated with the compositions/compounds under examination (0.03% concentrations) such as TRIO composition, only sucrosomial iron pyrophosphate (SRM) (Sucrosomiale®; Sucrosomial®), only vitamin K2 menaquinone-7 (MK-7) and only magnesium carbonate (MC).
The Alizarin Red Staining S (ARS) is an anthraquinone staining solution that is widely used to evaluate calcium deposits in cell cultures. Alizarin Red Staining (ARS) is versatile because the dye can be easily extracted from the coloured single layer of the cells and can be promptly dosed. The ARS quantification assay provides a sensitive tool for partial quantification of calcium in a cell matrix. Mineralization is assessed by extracting the low pH calcified mineral, neutralization with ammonia hydroxide and 405 nm colorimetric detection.
In the present study, the cells subjected to the different aforementioned treatments were fixed for ARS and the deposition of mineral was quantified by a commercially available colorimetric kit. For this purpose, a calibration curve was plotted with known and increasing ARS concentrations.
The results are set out in Table 1 and FIG. 10 as an ARS quantity that is directly proportional to the calcium content in the different experimental treatments (average value±st. dev.) and as average % variation from the controls. The data obtained from the different experimental groups were analyzed statistically and compared with T-test. The significant values in FIG. 10 compared with the positive control (p<0.05) are marked with an asterisk (*).

| Compound | effect of the individual compounds on the calcification (dose-response curves) [1] | % VAR vs CTR+ [2] [%] | % VAR vs CTR− [2] [%] | ARS mM average [2] [mM] | calcification inhibition ([1]; in ethanol) [%] | calcification inhibition ([1]; in ethyl acetate) [%] |
| --- | --- | --- | --- | --- | --- | --- |
| iron (III) pyrophosphate [Fe4(P2O7)3] | powerful calcification inhibitors, with a dose-dependent protective effect |  |  |  |  |  |
| O=C([O-])[O-].[Mg+2] [11_MC, magnesium carbonate] |  | −49.6 | 61.7 | 0.120 |  |  |
| CC(C)=CCC/C(C)=C/CC/C(C)=C/CC/C(C)=C/CC/C(C)=C/CC/C(C)=C/CC/C(C)=C/CC1=C(C)C(=O)c2ccccc2C1=O [9_MK7, menaquinone-7] |  | 58.0 | 34.7 | 0.100 | 20 | 15 to 30 |
| [Cl-].[Cl-].[Mg+2] [MgCl2, magnesium chloride] | powerful calcification inhibitors, with a dose-dependent protective effect |  |  |  |  |  |

Reference: US20200206157A1, “COMPOSITION FOR USE IN THE PREVENTION AND TREATMENT OF PATHOLOGIES OF THE CARDIOVASCULAR APPARATUS” (PHARMANUTRA S.P.A., priority 2017, published 2020)
